Data set [1] can be described thus: Enhancement of the hypnotic effect of sodium pentobarbital. Format: in vivo, mouse. To be noted: sodium pentobarbital 40 mg/kg i.p. alone. The procedure:
Forty mg/kg of sodium pentobarbital was injected intraperitoneally into mice and note was taken of animals losing the righting reflex and for how long. Other mice received a preliminary treatment with AP-28 at a dosage of 250 and 500 mg/kg, intraperitoneally, and thereafter sodium pentobarbital was given to them.

The format of data set [2] is in vivo, mouse. To be noted: control experiments; 95-percent confidence limits. The procedure:
This type of antagonism was evaluated in the mouse in three ways, namely: (1) protection from death from one hypodermic injection of strychnine: (2) evaluation of the LD50 of strychnine in mice both treated and untreated with AP-28, and (3) influence on the time required to cause animals to die by slow intravenous perfusion of strychnine. […] Groups of six mice were used. (2) increasing amounts of strychnine sulfate were injected hypodermically. In two experiments 200 or 400 mg/kg of intraperitoneal AP-28 were given 30 minutes prior to strychnine injection and the LD50 was calculated. The following results were obtained (95-percent confidence limits): […]

Data set [3] in a line: Protective effect against electroshock (MES). The note with it: phenobarbital Na 40 mg/kg i.p., 10 minutes before electroshock.
Data set [4] can be described thus: Influence on amphetamine-induced hypermobility. The note with it: d-amphetamine sulfate 5 mg/kg i.p. alone. The class given is in vivo, mouse. The procedure:
Six groups of 4 mice each were treated with 5 mg/kg d-amphetamine sulfate by intraperitoneal administration. Six groups of 4 animals each received the same dose of d-amphetamine sulfate plus 250 mg/kg of AP-28 intraperitoneally 15 minutes after d-amphetamine sulfate; six more groups of four animals each received saline solution and served as control animals. […] The number of times each animal crossed the light beam throughout the 10-minute test was noted.

The results in this text go back to patent US3968233A, “α-Amino-γ-butyrolactones as sedatives” (priority 1975, dated 1976).

Counter-ions that a name gives are not always drawn.

Turning to `CCCC(C)C1(CC)C(=O)NC(=O)NC1=O` (stereo not shown) [sodium pentobarbital, reference compound], the Animals under hypnosis/treated in data set [1] is 3/4. Also, in data set [1] (zero assigned to animals not losing righting reflex), the “Duration of hypnosis in minutes (m ± SE)” value was 3.25 ± 3.4 min. For the compound `O=C1C[C@@H]2OCC=C3CN4CC[C@]56c7ccccc7N1[C@H]5[C@H]2[C@H]3C[C@H]46` [Strychnine, strychnine sulfate], the LD50 of strychnine in data set [2] is on record as 0.83 (1.02-0.67) mg/kg.

On to `CCC1(c2ccccc2)C(=O)NC(=O)NC1=O` [Phenobarbital Na, Phenobarbital sodium, reference compound], for which, in data set [3], the Number animals died is listed as 0/8. Further, in data set [3] (in parentheses number treated), the “Number animals with clonic convulsions” value was 8(8) and the “Number animals with tonic convulsions” value was 0(8). In the case of `C[C@H](N)Cc1ccccc1` [d-amphetamine, d-amphetamine sulfate, reference compound], the “Mean number of crossings (± SE) in 10 minutes” value in data set [4] was determined as 657 ± 59.
